Source: PubChem BioAssay (NCI)
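Tested at 5 concentrations; 48 h exposure; 96-well plates; endpoints linearly interpolated, else capped at highest concentration. TGI: concentration producing complete growth inhibition.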

How the values were obtained:
Experiment in all cases: growth of human tumour cells (NCI), 48 h
A498 renal = system: A498 renal
HCT-15 colon = system: HCT-15 colon
MDA-MB-435 = system: MDA-MB-435
SF-539 CNS = system: SF-539 CNS
SK-OV-3 ovarian = system: SK-OV-3 ovarian
HCC-2998 colon = system: HCC-2998 colon
HT29 colon = system: HT29 colon

`O=C1/C(=C\c2ccccc2)C(NC2CCCCC2)c2ccccc21` (stereo unspecified) showed a TGI (A498 renal) of 32.7 µM, a TGI (HCT-15 colon) of 5.79 µM and a TGI (MDA-MB-435) of 3.18 µM. For the same compound, the TGI (SF-539 CNS) was 4.39 µM and the TGI (SK-OV-3 ovarian) was 27 µM.

In the case of `COC(=O)c1ccccc1CC1Cc2ccc3c(c2C1=O)CCCC3` (stereo unspecified), the TGI (A498 renal) is reported as > 100 µM, the TGI (HCC-2998 colon) is reported as > 100 µM and the TGI (HCT-15 colon) is reported as > 100 µM. For the same compound, the TGI (HT29 colon) was > 100 µM, the TGI (MDA-MB-435) was > 100 µM and the TGI (SF-539 CNS) was > 100 µM. The TGI (SK-OV-3 ovarian) was > 100 µM.

With `COCO[C@@H]1C[C@H]2C(=O)Nc3ccccc3C(=O)N2C1` the TGI (A498 renal) was > 100 µM, the TGI (HCT-15 colon) was > 100 µM and the TGI (HT29 colon) was > 100 µM. The TGI (MDA-MB-435) was > 100 µM, the TGI (SF-539 CNS) was > 100 µM and the TGI (SK-OV-3 ovarian) was > 100 µM.

In the case of `CCOC(=O)c1cn2c(n1)sc1cccc(C)c12`, the TGI (HCC-2998 colon) is reported as > 100 µM, the TGI (HCT-15 colon) is reported as > 100 µM and the TGI (SF-539 CNS) is reported as > 100 µM. For the same compound, the TGI (SK-OV-3 ovarian) was > 100 µM.

With `CC(C)(C)OC(=O)N[C@H]1CCN(C2CCCCC2)C1=O` the TGI (A498 renal) was > 100 µM, the TGI (HCC-2998 colon) was > 100 µM and the TGI (HCT-15 colon) was > 100 µM. The TGI (MDA-MB-435) was > 100 µM, the TGI (SF-539 CNS) was > 100 µM and the TGI (SK-OV-3 ovarian) was > 100 µM.

`Nc1nc(SCCc2ccccc2)c2[nH]cnc2n1` was tested, and the TGI (A498 renal) was 61 µM, the TGI (HCC-2998 colon) was 93.8 µM and the TGI (HCT-15 colon) was > 100 µM. The TGI (HT29 colon) was > 100 µM and the TGI (MDA-MB-435) was > 100 µM.

In the case of `C[C@@H]1CC[C@]2(C(=O)O)CC[C@]3(C)C(=CC[C@@H]4[C@@]5(C)CC[C@H](O)C(C)(C)[C@@H]5CC[C@]43C)[C@@H]2[C@]1(C)O`, the TGI (A498 renal) is reported as 33.3 µM, the TGI (HCC-2998 colon) is reported as 29.2 µM and the TGI (HCT-15 colon) is reported as 24.2 µM. It also gave a TGI (MDA-MB-435) of 28.8 µM, a TGI (SF-539 CNS) of 12 µM and a TGI (SK-OV-3 ovarian) of 31.8 µM.

For `O=C1CCCSC(=O)N1Cc1ccccc1`, the TGI (A498 renal) was > 100 µM, the TGI (HCC-2998 colon) was > 100 µM and the TGI (HCT-15 colon) was > 100 µM. For the same compound, the TGI (HT29 colon) was > 100 µM, the TGI (MDA-MB-435) was > 100 µM and the TGI (SF-539 CNS) was > 100 µM. The TGI (SK-OV-3 ovarian) was > 100 µM.

For `Cc1n[nH]c(=O)n1/N=C/c1ccc(Cl)cc1`, the TGI (A498 renal) was > 100 µM, the TGI (HCC-2998 colon) was > 100 µM and the TGI (HCT-15 colon) was > 100 µM. The TGI (MDA-MB-435) was > 100 µM, the TGI (SF-539 CNS) was > 100 µM and the TGI (SK-OV-3 ovarian) was > 100 µM.

For `COc1cccc(C(=O)O[C@H]2[C@@H]3[C@]4(OC(C)=O)CO[C@@H]4C[C@H](O)[C@@]3(C)C(=O)[C@H](OC(C)=O)C3=C(C)[C@@H](OC(=O)[C@H](O)[C@@H](NC(=O)OC(C)(C)C)c4ccco4)C[C@]2(O)C3(C)C)c1`, the TGI (HCT-15 colon) was > 16.4 µM, the TGI (HT29 colon) was 0.133 µM and the TGI (MDA-MB-435) was 0.0909 µM. For the same compound, the TGI (SF-539 CNS) was 0.33 µM and the TGI (SK-OV-3 ovarian) was 0.0279 µM.

In the case of `COc1cc2c(c(OC)c1OC)C(=O)[C@@H]1[C@H]2N1C(N)=O`, the TGI (HCC-2998 colon) is reported as > 100 µM, the TGI (HCT-15 colon) is reported as > 100 µM and the TGI (HT29 colon) is reported as > 100 µM. The TGI (MDA-MB-435) was > 100 µM and the TGI (SF-539 CNS) was > 100 µM.

In the case of `O=C1/C(=C/c2ccccc2)N=C2Sc3c(nc[nH]c3=O)N12`, the TGI (A498 renal) is reported as > 100 µM, the TGI (HCC-2998 colon) is reported as > 100 µM and the TGI (HCT-15 colon) is reported as > 100 µM. For the same compound, the TGI (HT29 colon) was > 100 µM, the TGI (MDA-MB-435) was > 100 µM and the TGI (SF-539 CNS) was > 100 µM. The TGI (SK-OV-3 ovarian) was > 100 µM.

`COc1cc(C(=O)N(C(=S)OCc2ccccn2)c2ccccc2)cc(OC)c1OC` was tested, and the TGI (A498 renal) was > 100 µM, the TGI (HCT-15 colon) was > 100 µM and the TGI (HT29 colon) was > 100 µM. For the same compound, the TGI (MDA-MB-435) was > 100 µM, the TGI (SF-539 CNS) was 81 µM and the TGI (SK-OV-3 ovarian) was > 100 µM.

For `COc1ccc(COCCOCc2nc(C#N)c(N)o2)cc1`, the TGI (A498 renal) was > 100 µM, the TGI (HCC-2998 colon) was > 100 µM and the TGI (HCT-15 colon) was > 100 µM. The TGI (HT29 colon) was > 100 µM, the TGI (MDA-MB-435) was > 100 µM and the TGI (SF-539 CNS) was > 100 µM. The TGI (SK-OV-3 ovarian) was > 100 µM.

`Cc1ccc(C(=O)O)cc1S(=O)(=O)Nn1cnc2ccc(S(=O)(=O)Nc3ccccc3C(=O)O)cc2c1=O` was tested, and the TGI (HCC-2998 colon) was > 100 µM, the TGI (HCT-15 colon) was > 100 µM and the TGI (HT29 colon) was > 100 µM. The TGI (MDA-MB-435) was > 100 µM, the TGI (SF-539 CNS) was > 100 µM and the TGI (SK-OV-3 ovarian) was > 100 µM.

With `O=C1C=CC(=O)c2c1ccc1c3ccccc3n(CCCCCCCCCCCCn3c4ccccc4c4ccc5c(c43)C(=O)C=CC5=O)c21` the TGI (A498 renal) was > 100 µM, the TGI (HCC-2998 colon) was > 46.4 µM and the TGI (HCT-15 colon) was > 100 µM. For the same compound, the TGI (HT29 colon) was > 100 µM, the TGI (MDA-MB-435) was > 100 µM and the TGI (SF-539 CNS) was > 100 µM. The TGI (SK-OV-3 ovarian) was > 100 µM.

For `O=[N+]([O-])c1ccc2c(c1)c(OCc1ccccc1)nn2Cc1ccccc1`, the TGI (A498 renal) was > 100 µM, the TGI (HCC-2998 colon) was > 100 µM and the TGI (HCT-15 colon) was > 100 µM. For the same compound, the TGI (HT29 colon) was > 100 µM, the TGI (MDA-MB-435) was > 100 µM and the TGI (SF-539 CNS) was > 100 µM. The TGI (SK-OV-3 ovarian) was > 100 µM.

Compound `CC(C)=CCc1c2c(c3occ(-c4ccc(O)cc4)c(=O)c3c1O)CC(C(C)(C)O)O2` (stereo unspecified) has a TGI (A498 renal) of 29.6 µM, a TGI (HCC-2998 colon) of 23.2 µM and a TGI (HCT-15 colon) of 30 µM. For the same compound, the TGI (HT29 colon) was 25.8 µM, the TGI (MDA-MB-435) was 30.5 µM and the TGI (SF-539 CNS) was 41.1 µM. It also gave a TGI (SK-OV-3 ovarian) of 33 µM.

`C=CCN1C[C@H](C)N([C@H](c2ccc(C(=O)NC(CC)CC)cc2)c2cccc(OC)c2)C[C@H]1C` was tested, and the TGI (A498 renal) was 63.3 µM, the TGI (HCC-2998 colon) was > 100 µM and the TGI (HCT-15 colon) was > 100 µM. The TGI (HT29 colon) was 61.1 µM, the TGI (MDA-MB-435) was > 100 µM and the TGI (SF-539 CNS) was 43.4 µM. The TGI (SK-OV-3 ovarian) was > 100 µM.

`COc1ccc(-c2cc(O)c3nc4ccccc4n3c2)cc1` was tested, and the TGI (A498 renal) was > 100 µM, the TGI (HCT-15 colon) was > 100 µM and the TGI (HT29 colon) was > 100 µM. The TGI (MDA-MB-435) was > 100 µM and the TGI (SF-539 CNS) was > 100 µM.

`Nn1c(-c2ccccc2)nn(C(=O)c2ccccc2)c1=O` was tested, and the TGI (A498 renal) was > 100 µM, the TGI (HCC-2998 colon) was > 100 µM and the TGI (HCT-15 colon) was > 100 µM. For the same compound, the TGI (HT29 colon) was > 100 µM, the TGI (MDA-MB-435) was > 100 µM and the TGI (SF-539 CNS) was > 100 µM.

`Cc1cn2c(/C=N/N=C(N)N)c(-c3cccc([N+](=O)[O-])c3)nc2s1` was tested, and the TGI (HCC-2998 colon) was 2.83 µM, the TGI (HCT-15 colon) was 19.6 µM and the TGI (HT29 colon) was 1.86 µM. For the same compound, the TGI (MDA-MB-435) was 3.21 µM and the TGI (SF-539 CNS) was 4.05 µM.

With `C1CN(c2nc3c(nnc4nc(N5CCOCC5)sc43)s2)CCO1` the TGI (A498 renal) was > 100 µM, the TGI (HCT-15 colon) was > 100 µM and the TGI (HT29 colon) was > 100 µM. For the same compound, the TGI (MDA-MB-435) was > 100 µM and the TGI (SF-539 CNS) was > 100 µM.

`C=CC1(C)CCC2C(=CCC3C2(C)CC(O)C(O)C3(C)COC2OC(C(=O)O)C(O)C(O)C2O)C1` (stereo unspecified) (tested in a mixture with another compound) was tested, and the TGI (A498 renal) was > 100 µM, the TGI (HCC-2998 colon) was > 100 µM and the TGI (HCT-15 colon) was > 100 µM. For the same compound, the TGI (HT29 colon) was > 100 µM, the TGI (MDA-MB-435) was > 100 µM and the TGI (SF-539 CNS) was > 100 µM. For the same compound, the TGI (SK-OV-3 ovarian) was > 100 µM.

With `COC(=O)C([C@H](NC1(c2ccccc2)c2ccccc2-c2ccccc21)C(=O)OC)N(NC(=O)OCc1ccccc1)C(=O)OCc1ccccc1` (mixture of isomers) the TGI (A498 renal) was > 100 µM, the TGI (HCC-2998 colon) was > 100 µM and the TGI (HCT-15 colon) was > 100 µM. The TGI (HT29 colon) was > 100 µM, the TGI (MDA-MB-435) was > 100 µM and the TGI (SF-539 CNS) was > 100 µM. The TGI (SK-OV-3 ovarian) was > 100 µM.

In the case of `CCOC(=O)c1csc(NC(=O)CN2CCOCC2)n1`, the TGI (A498 renal) is reported as > 100 µM, the TGI (HCC-2998 colon) is reported as > 100 µM and the TGI (HCT-15 colon) is reported as > 100 µM. For the same compound, the TGI (HT29 colon) was > 100 µM, the TGI (MDA-MB-435) was > 100 µM and the TGI (SF-539 CNS) was > 100 µM. For the same compound, the TGI (SK-OV-3 ovarian) was > 100 µM.

For `O=c1c2cc([N+](=O)[O-])cnc2sn1-c1ccc([N+](=O)[O-])cc1`, the TGI (HCC-2998 colon) was > 100 µM, the TGI (HCT-15 colon) was 87.5 µM and the TGI (HT29 colon) was 55.8 µM. For the same compound, the TGI (MDA-MB-435) was > 100 µM, the TGI (SF-539 CNS) was > 100 µM and the TGI (SK-OV-3 ovarian) was > 100 µM.

With `CN(C)C(=O)O/N=C1/C(c2c(O)[nH]c3ccccc23)=Nc2ccccc21` the TGI (A498 renal) was 18.1 µM, the TGI (HCC-2998 colon) was > 100 µM and the TGI (HCT-15 colon) was > 100 µM. For the same compound, the TGI (HT29 colon) was > 100 µM, the TGI (MDA-MB-435) was > 100 µM and the TGI (SF-539 CNS) was 21.4 µM. The TGI (SK-OV-3 ovarian) was 48.8 µM.
